The target of assay [1] is T1, Muscarinic acetylcholine receptor M2 (Homo sapiens, UniProt P08172). Further: in other assays of this panel Not Active means under 50% inhibition at 10 µM.
T1 sequence (P08172 whole entry): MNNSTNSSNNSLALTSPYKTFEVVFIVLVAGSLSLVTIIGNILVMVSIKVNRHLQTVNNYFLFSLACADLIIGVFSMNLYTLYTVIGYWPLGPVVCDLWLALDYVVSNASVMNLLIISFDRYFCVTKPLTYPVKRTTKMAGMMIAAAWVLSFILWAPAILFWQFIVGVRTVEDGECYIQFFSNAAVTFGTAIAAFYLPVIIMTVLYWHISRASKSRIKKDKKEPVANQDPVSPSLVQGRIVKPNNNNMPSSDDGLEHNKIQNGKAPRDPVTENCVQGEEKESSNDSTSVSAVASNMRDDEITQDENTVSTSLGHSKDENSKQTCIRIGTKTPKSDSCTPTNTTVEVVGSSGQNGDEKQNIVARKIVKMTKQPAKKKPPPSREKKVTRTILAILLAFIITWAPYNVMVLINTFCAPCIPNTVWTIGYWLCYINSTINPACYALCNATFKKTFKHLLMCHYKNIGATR
The class given is cell membranes, CHO-K1, Membrane. To be noted: cho-k1.

Assay [2] concerns the target T2, Neuropeptide Y receptor type 2 (Homo sapiens, UniProt P49146). Further: in other assays of this panel Not Active means under 50% inhibition at 10 µM.
T2 sequence (P49146 whole entry): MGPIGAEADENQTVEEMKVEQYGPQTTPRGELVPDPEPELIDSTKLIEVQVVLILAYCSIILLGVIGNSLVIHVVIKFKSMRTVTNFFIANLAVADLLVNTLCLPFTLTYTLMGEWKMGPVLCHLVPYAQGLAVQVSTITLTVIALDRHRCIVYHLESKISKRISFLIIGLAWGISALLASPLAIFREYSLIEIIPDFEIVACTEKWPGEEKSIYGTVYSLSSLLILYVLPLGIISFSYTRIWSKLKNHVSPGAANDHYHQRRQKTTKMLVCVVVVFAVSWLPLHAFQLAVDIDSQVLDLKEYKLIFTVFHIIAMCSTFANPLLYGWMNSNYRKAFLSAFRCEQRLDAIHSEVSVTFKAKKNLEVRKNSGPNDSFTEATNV
It counts as cell membranes, Membrane. To be noted: kan-ts.

The target of assay [3] is T3, Nitric oxide synthase, inducible (Mus musculus, UniProt P29477).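 Further: inhibition of iNOS enzyme activity measured with L-arginine as substrate; in other assays of this panel Not Active means under 50% inhibition at 10 µM.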
T3 sequence (P29477 whole entry): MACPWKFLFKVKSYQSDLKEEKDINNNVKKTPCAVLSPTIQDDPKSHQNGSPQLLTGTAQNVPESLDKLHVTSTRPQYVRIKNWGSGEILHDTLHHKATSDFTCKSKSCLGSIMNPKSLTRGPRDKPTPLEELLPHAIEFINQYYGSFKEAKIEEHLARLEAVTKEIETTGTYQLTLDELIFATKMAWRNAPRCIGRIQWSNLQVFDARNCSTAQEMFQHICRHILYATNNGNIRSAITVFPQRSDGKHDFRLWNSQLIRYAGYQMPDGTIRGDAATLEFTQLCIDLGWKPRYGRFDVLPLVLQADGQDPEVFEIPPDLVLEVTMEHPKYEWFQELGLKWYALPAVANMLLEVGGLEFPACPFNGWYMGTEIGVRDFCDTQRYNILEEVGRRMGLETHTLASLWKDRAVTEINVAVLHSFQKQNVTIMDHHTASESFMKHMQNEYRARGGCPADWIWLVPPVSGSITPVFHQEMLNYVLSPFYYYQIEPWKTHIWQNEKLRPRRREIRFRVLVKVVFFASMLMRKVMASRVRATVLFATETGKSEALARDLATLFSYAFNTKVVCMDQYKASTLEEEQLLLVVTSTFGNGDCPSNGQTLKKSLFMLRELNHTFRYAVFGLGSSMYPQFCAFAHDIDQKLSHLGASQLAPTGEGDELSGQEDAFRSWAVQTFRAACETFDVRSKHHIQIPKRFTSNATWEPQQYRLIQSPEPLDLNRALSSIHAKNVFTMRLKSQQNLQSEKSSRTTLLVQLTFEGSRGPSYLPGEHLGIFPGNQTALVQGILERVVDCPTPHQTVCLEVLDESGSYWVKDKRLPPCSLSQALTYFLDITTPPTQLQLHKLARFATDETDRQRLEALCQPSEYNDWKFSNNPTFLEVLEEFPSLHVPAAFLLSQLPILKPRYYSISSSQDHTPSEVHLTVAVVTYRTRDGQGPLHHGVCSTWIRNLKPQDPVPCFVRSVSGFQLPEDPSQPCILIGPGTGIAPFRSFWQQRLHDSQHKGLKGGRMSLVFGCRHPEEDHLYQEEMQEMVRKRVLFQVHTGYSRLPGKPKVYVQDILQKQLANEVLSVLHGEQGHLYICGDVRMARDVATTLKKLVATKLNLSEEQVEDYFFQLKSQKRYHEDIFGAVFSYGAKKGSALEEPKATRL
Details: species or system Escherichia coli.

Assay [4] addresses Sigma non-opioid intracellular receptor 1 (Homo sapiens, UniProt Q99720). As to the kind of experiment: DRUGMATRIX: Sigma1 radioligand binding (ligand: [3H] Haloperidol). It counts as cell membranes, Jurkat, Membrane. To be noted: Not Active = under 50% inhibition at 10 µM.
Assay [5] deals with T4, 5-hydroxytryptamine receptor 1A (Rattus norvegicus, UniProt P19327).
T4 sequence (P19327 whole entry): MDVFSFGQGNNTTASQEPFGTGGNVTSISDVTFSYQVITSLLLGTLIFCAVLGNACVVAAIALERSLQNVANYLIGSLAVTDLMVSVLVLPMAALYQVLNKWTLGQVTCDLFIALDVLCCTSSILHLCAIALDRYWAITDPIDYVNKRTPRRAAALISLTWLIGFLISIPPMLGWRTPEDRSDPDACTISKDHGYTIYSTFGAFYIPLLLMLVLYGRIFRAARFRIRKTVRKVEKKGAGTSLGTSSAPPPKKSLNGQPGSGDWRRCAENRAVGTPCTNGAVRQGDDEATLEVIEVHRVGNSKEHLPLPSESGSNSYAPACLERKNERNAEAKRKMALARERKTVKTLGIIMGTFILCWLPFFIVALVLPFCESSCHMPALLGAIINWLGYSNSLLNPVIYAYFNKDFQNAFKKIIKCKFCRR
It counts as cell membranes, CHO-K1, Membrane.

The target in assay [6] is Mitogen-activated protein kinase 1 (Homo sapiens, UniProt P28482). As to the kind of experiment: DRUGMATRIX: Protein Serine/Threonine Kinase, ERK2 enzyme inhibition (substrate: Myelin Basic Protein). Details: species or system Escherichia coli. To be noted: Not Active = under 50% inhibition at 10 µM.
Sequence of Mitogen-activated protein kinase 1 (P28482 whole entry): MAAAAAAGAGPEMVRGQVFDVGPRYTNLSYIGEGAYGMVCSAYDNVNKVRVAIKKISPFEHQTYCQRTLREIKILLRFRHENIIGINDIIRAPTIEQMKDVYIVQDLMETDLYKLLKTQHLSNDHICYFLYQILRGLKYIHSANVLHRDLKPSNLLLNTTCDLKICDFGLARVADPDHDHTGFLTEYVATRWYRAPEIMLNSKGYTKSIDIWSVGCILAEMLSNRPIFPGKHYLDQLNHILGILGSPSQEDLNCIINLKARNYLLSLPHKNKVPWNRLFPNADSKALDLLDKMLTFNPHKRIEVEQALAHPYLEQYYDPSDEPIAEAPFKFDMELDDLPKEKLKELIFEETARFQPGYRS

Sequence of Sigma non-opioid intracellular receptor 1 (Q99720 whole entry): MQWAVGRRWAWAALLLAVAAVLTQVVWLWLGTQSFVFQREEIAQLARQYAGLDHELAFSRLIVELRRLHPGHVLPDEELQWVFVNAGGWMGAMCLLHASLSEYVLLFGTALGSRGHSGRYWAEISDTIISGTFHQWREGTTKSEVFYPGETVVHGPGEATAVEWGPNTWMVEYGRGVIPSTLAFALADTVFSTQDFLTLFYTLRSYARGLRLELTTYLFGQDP

Consider `COc1ccc(C[C@H]2NC[C@H](O)[C@H]2OC(C)=O)cc1` [ANISOMYCIN], for which the IC50 entry in assay [1], in assay [2], in assay [3], in assay [4] (jurkat), in assay [5] (cho-k1) and in assay [6] was “Not Active” throughout. Besides, the Ki entry in assay [1], in assay [2], in assay [3], in assay [4] (jurkat), in assay [5] (cho-k1) and in assay [6] was “Not Active” in each case.
Regarding `Nc1ncn([C@@H]2O[C@H](CO)[C@@H](O)[C@H]2O)c(=O)n1` [AZACITIDINE], the IC50 entry in assay [1], in assay [2], in assay [3], in assay [4] (jurkat), in assay [5] (cho-k1) and in assay [6] was “Not Active” throughout.
Turning to `CN(C)C(=O)Oc1cc(OC(=O)N(C)C)cc(C(O)CNC(C)(C)C)c1` (configuration not stated) [BAMBUTEROL], the half-maximal inhibitory concentration (IC50) result in assay [1], in assay [2], in assay [3], in assay [4] (jurkat), in assay [5] (cho-k1) and in assay [6] was “Not Active” each time.
Regarding `c1ccc2c(c1)c1cccc3ccc4cccc2c4c31` [BENZO[E]PYRENE], the IC50 result in assay [1], in assay [2], in assay [3], in assay [4] (jurkat), in assay [5] (cho-k1) and in assay [6] was “Not Active” each time.
Take `CNCCc1ccccn1` [BETAHISTINE]: the IC50 result in assay [1], in assay [2], in assay [3], in assay [4] (jurkat), in assay [5] (cho-k1) and in assay [6] was “Not Active” each time.
As for `CC(C)C(Br)C(=O)NC(N)=O` (configuration not stated) [BROMISOVALUM], the IC50 entry in assay [1], in assay [2], in assay [3], in assay [4] (jurkat), in assay [5] (cho-k1) and in assay [6] was “Not Active” each time.
In the case of `CCCC1O[C@@H]2C[C@H]3[C@@H]4CCC5=CC(=O)C=C[C@]5(C)[C@H]4[C@@H](O)C[C@]3(C)[C@]2(C(=O)CO)O1` (some centres not stated) [BUDESONIDE], the IC50 result in assay [1], in assay [2], in assay [3], in assay [4] (jurkat), in assay [5] (cho-k1) and in assay [6] was “Not Active” in each case.
Take `CC(NC(C)(C)C)C(=O)c1cccc(Cl)c1` (configuration not stated) [BUPROPION]: the IC50 result in assay [1], in assay [2], in assay [3], in assay [4] (jurkat), in assay [5] (cho-k1) and in assay [6] was “Not Active” throughout.
For `CN(Cc1ccc(C(C)(C)C)cc1)Cc1cccc2ccccc12` [BUTENAFINE], the IC50 (as a rule, the midpoint of a concentration-inhibition curve) was “Not Active” in assay [1]; “Not Active” in assay [2]; “Not Active” in assay [3]; 3950 nM in assay [4] (read-out: IC50); “Not Active” in assay [5] (cho-k1); “Not Active” in assay [6]. The Ki – broadly, the equilibrium dissociation constant of an inhibitor or competing ligand from its target – in assay [4] (read-out: Ki) is 1660 nM.
On to `C[C@H](CS)C(=O)N1CCC[C@H]1C(=O)O` [CAPTOPRIL], for which the IC50 result in assay [1], in assay [2], in assay [3], in assay [4] (jurkat), in assay [5] (cho-k1) and in assay [6] was “Not Active” throughout.
Regarding `Cc1ccc(-c2cc(C(F)(F)F)nn2-c2ccc(S(N)(=O)=O)cc2)cc1` [CELECOXIB], the IC50 result in assay [1], in assay [2], in assay [3], in assay [4] (jurkat), in assay [5] (cho-k1) and in assay [6] was “Not Active” each time.
For the molecule `O=C(O)CCCc1ccc(N(CCCl)CCCl)cc1` [CHLORAMBUCIL], the IC50 result in assay [1], in assay [2], in assay [3], in assay [4] (jurkat), in assay [5] (cho-k1) and in assay [6] was “Not Active” each time.
As for `C[C@H](CCC(=O)O)[C@H]1CC[C@H]2[C@@H]3[C@H](O)C[C@@H]4C[C@H](O)CC[C@]4(C)[C@H]3C[C@H](O)[C@]12C` [CHOLIC ACID], the IC50 entry in assay [1], in assay [2], in assay [3], in assay [4] (jurkat), in assay [5] (cho-k1) and in assay [6] was “Not Active” throughout.
As to `Cc1cc(C2CCCCC2)n(O)c(=O)c1` [CICLOPIROX], the half-inhibitory concentration (IC50) result in assay [1], in assay [2], in assay [3], in assay [4] (jurkat), in assay [5] (cho-k1) and in assay [6] was “Not Active” throughout.
Take `CC1=C2C(=CO[C@H](C)[C@H]2C)C(O)=C(C(=O)O)C1=O` [CITRININ]: the IC50 entry in assay [1], in assay [2], in assay [3], in assay [4] (jurkat), in assay [5] (cho-k1) and in assay [6] was “Not Active” each time.
As for `CC(C)(C)NCC(O)c1cc(Cl)c(N)c(Cl)c1` (configuration not stated) [CLENBUTEROL], the IC50 entry in assay [1] is “Not Active”; in assay [2] it was “Not Active”; in assay [3], “Not Active”; in assay [4] (jurkat), “Not Active”; in assay [5] (read-out: IC50) it was 2650 nM; in assay [6], “Not Active”. The Ki in assay [5] (read-out: Ki) came to 1520 nM.
For the molecule `CC(C)(Oc1ccc(Cl)cc1)C(=O)O` [CLOFIBRIC ACID], the IC50 result in assay [1], in assay [2], in assay [3], in assay [4] (jurkat), in assay [5] (cho-k1) and in assay [6] was “Not Active” in each case.
As for `Clc1cccc(Cl)c1NC1=NCCN1` [CLONIDINE], the IC50 entry in assay [1] was “Not Active”; in assay [2] it was “Not Active”; in assay [3], “Not Active”; in assay [4] (jurkat) it was “Not Active”; in assay [5] (read-out: IC50), 5360 nM; in assay [6], “Not Active”. For the same molecule, in assay [5] (read-out: Ki), the Ki came to 3070 nM.

The values are drawn from ChEMBL document CHEMBL1909046, “DrugMatrix in vitro pharmacology data”.
